Experimental data taken from patent US8999375B2, “Compositions including pyruvate for companion animals and methods of use thereof” (Hill's Pet Nutrition, Inc., priority 2009, dated 2015).

Tested on: arthritic and normal cats
Test: Feline arthritis biomarker measurements in arthritic and normal cats
Type: in vivo
Conditions: 1% by weight in diet, 28 days
Procedure: Calcium pyruvate was tested in arthritic and normal cats to determine efficacy in reducing cartilage damage and inflammatory markers. Ten normal and ten arthritis cats were fed the feline control diet enhanced with 1% by weight calcium pyruvate for 28 days. Analysis was performed on natural log transformed values. Means and SED are antilog values of log transformed data.

## calcium pyruvate
  concentration of serum HMGB1 (in words): reduced
  concentration of serum IL-1 beta (in words): reduced
  marker of bone formation, BAP (in words): improved
